Source: ChEMBL document CHEMBL5724806, “Unraveling interindividual differences and functional consequences of gut microbial metabolism of immunosuppressants” (2024)

What was measured:
Type in all cases: ADME
[1] = The drug is tested on Gemella morbillorum strain: DSM20572 for biotransformation under microaerobic condition. The drug concentrations were measured over 6 timepoints collected between 0 and 12 hours of incubation by liquid-chromatography-coupled mass spectrometry (LC–MS); set-up: dose 5 uM, timepoint 0, 1.5, 3, 6, 9, 12 hours; conditions: 5 µM
[2] = The drug is tested on Escherichia coli strain: DSM27469 for biotransformation under anaerobic condition. The drug concentrations were measured over 6 timepoints collected between 0 and 12 hours of incubation by liquid-chromatography-coupled mass spectrometry (LC–MS); set-up: dose 5 uM, timepoint 0, 1.5, 3, 6, 9, 12 hours; conditions: 5 µM
[3] = The drug is tested on Bacteroides thetaiotaomicron strain: DSM2079 for biotransformation under anaerobic condition. The drug concentrations were measured over 6 timepoints collected between 0 and 12 hours of incubation by liquid-chromatography-coupled mass spectrometry (LC–MS); set-up: dose 5 uM, timepoint 0, 1.5, 3, 6, 9, 12 hours; conditions: 5 µM
[4] = The drug is tested on Blautia hansenii strain: DSM20583 for biotransformation under anaerobic condition. The drug concentrations were measured over 6 timepoints collected between 0 and 12 hours of incubation by liquid-chromatography-coupled mass spectrometry (LC–MS); set-up: dose 5 uM, timepoint 0, 1.5, 3, 6, 9, 12 hours; conditions: 5 µM
[5] = The drug is tested on Clostridium scindens strain: DSM5676 for biotransformation under anaerobic condition. The drug concentrations were measured over 6 timepoints collected between 0 and 12 hours of incubation by liquid-chromatography-coupled mass spectrometry (LC–MS); set-up: dose 5 uM, timepoint 0, 1.5, 3, 6, 9, 12 hours; conditions: 5 µM
[6] = The drug is tested on Streptococcus mitis strain: DSM12643 for biotransformation under microaerobic condition. The drug concentrations were measured over 6 timepoints collected between 0 and 12 hours of incubation by liquid-chromatography-coupled mass spectrometry (LC–MS); set-up: dose 5 uM, timepoint 0, 1.5, 3, 6, 9, 12 hours; conditions: 5 µM
[7] = The drug is tested on Dorea formicigenerans strain: DSM3992 for biotransformation under anaerobic condition. The drug concentrations were measured over 6 timepoints collected between 0 and 12 hours of incubation by liquid-chromatography-coupled mass spectrometry (LC–MS); set-up: dose 5 uM, timepoint 0, 1.5, 3, 6, 9, 12 hours; conditions: 5 µM
[8] = The drug is tested on Clostridium ramosum strain: DSM1402 for biotransformation under anaerobic condition. The drug concentrations were measured over 6 timepoints collected between 0 and 12 hours of incubation by liquid-chromatography-coupled mass spectrometry (LC–MS); set-up: dose 5 uM, timepoint 0, 1.5, 3, 6, 9, 12 hours; conditions: thomasclavelia ramosa, 5 µM
[9] = The drug is tested on Bacteroides caccae strain: DSM19024 for biotransformation under anaerobic condition. The drug concentrations were measured over 6 timepoints collected between 0 and 12 hours of incubation by liquid-chromatography-coupled mass spectrometry (LC–MS); set-up: dose 5 uM, timepoint 0, 1.5, 3, 6, 9, 12 hours; conditions: 5 µM
[10] = The drug is tested on Actinomyces naeslundi strain: DSM43013 for biotransformation under microaerobic condition. The drug concentrations were measured over 6 timepoints collected between 0 and 12 hours of incubation by liquid-chromatography-coupled mass spectrometry (LC–MS); set-up: dose 5 uM, timepoint 0, 1.5, 3, 6, 9, 12 hours; conditions: actinomyces naeslundii, 5 µM
[11] = The drug is tested on the gut metagenome community of P-03 with ENA study accession number: PRJEB31790 for biotransformation under microaerobic condition. The drug concentrations were measured over 7 timepoints collected between 0 and 12 hours of incubation by liquid-chromatography-coupled mass spectrometry (LC–MS); set-up: dose 5 uM, timepoint 0, 0.75, 1.5, 3, 6, 9, 12 hours; conditions: 5 µM
[12] = The drug is tested on Bifidobacterium longum strain: DSM20088 for biotransformation under anaerobic condition. The drug concentrations were measured over 6 timepoints collected between 0 and 12 hours of incubation by liquid-chromatography-coupled mass spectrometry (LC–MS); set-up: dose 5 uM, timepoint 0, 1.5, 3, 6, 9, 12 hours; conditions: 5 µM
[13] = The drug is tested on Streptococcus anginosus strain: DSM20563 for biotransformation under microaerobic condition. The drug concentrations were measured over 6 timepoints collected between 0 and 12 hours of incubation by liquid-chromatography-coupled mass spectrometry (LC–MS); set-up: dose 5 uM, timepoint 0, 1.5, 3, 6, 9, 12 hours; conditions: 5 µM
[14] = The drug is tested on Gemella haemolysans strain: DSM107751 for biotransformation under anaerobic condition. The drug concentrations were measured over 6 timepoints collected between 0 and 12 hours of incubation by liquid-chromatography-coupled mass spectrometry (LC–MS); set-up: dose 5 uM, timepoint 0, 1.5, 3, 6, 9, 12 hours; conditions: 5 µM
[15] = The drug is tested on the gut metagenome community of A-02 with ENA study accession number: PRJEB31790 for biotransformation under anaerobic condition. The drug concentrations were measured over 7 timepoints collected between 0 and 12 hours of incubation by liquid-chromatography-coupled mass spectrometry (LC–MS); set-up: dose 5 uM, timepoint 0, 0.75, 1.5, 3, 6, 9, 12 hours; conditions: 5 µM
[16] = The drug is tested on Parabacteroides distasonis strain: DSM20701 for biotransformation under anaerobic condition. The drug concentrations were measured over 6 timepoints collected between 0 and 12 hours of incubation by liquid-chromatography-coupled mass spectrometry (LC–MS); set-up: dose 5 uM, timepoint 0, 1.5, 3, 6, 9, 12 hours; conditions: 5 µM
[17] = The drug is tested on the gut metagenome community of A-05 with ENA study accession number: PRJEB31790 for biotransformation under microaerobic condition. The drug concentrations were measured over 7 timepoints collected between 0 and 12 hours of incubation by liquid-chromatography-coupled mass spectrometry (LC–MS); set-up: dose 5 uM, timepoint 0, 0.75, 1.5, 3, 6, 9, 12 hours; conditions: 5 µM
[18] = The drug is tested on Streptococcus salivarius strain: DSM20560 for biotransformation under anaerobic condition. The drug concentrations were measured over 6 timepoints collected between 0 and 12 hours of incubation by liquid-chromatography-coupled mass spectrometry (LC–MS); set-up: dose 5 uM, timepoint 0, 1.5, 3, 6, 9, 12 hours; conditions: 5 µM
[19] = The drug is tested on Lactobacillus gasseri strain: DSM20243 for biotransformation under anaerobic condition. The drug concentrations were measured over 6 timepoints collected between 0 and 12 hours of incubation by liquid-chromatography-coupled mass spectrometry (LC–MS); set-up: dose 5 uM, timepoint 0, 1.5, 3, 6, 9, 12 hours; conditions: 5 µM
[20] = The drug is tested on the gut metagenome community of A-07 with ENA study accession number: PRJEB31790 for biotransformation under anaerobic condition. The drug concentrations were measured over 7 timepoints collected between 0 and 12 hours of incubation by liquid-chromatography-coupled mass spectrometry (LC–MS); set-up: dose 5 uM, timepoint 0, 0.75, 1.5, 3, 6, 9, 12 hours; conditions: 5 µM
[21] = The drug is tested on Lactobacillus paracasei strain: ATCC27092 for biotransformation under microaerobic condition. The drug concentrations were measured over 6 timepoints collected between 0 and 12 hours of incubation by liquid-chromatography-coupled mass spectrometry (LC–MS); set-up: dose 5 uM, timepoint 0, 1.5, 3, 6, 9, 12 hours; conditions: lacticaseibacillus paracasei, 5 µM
[22] = The drug is tested on Bifidobacterium longum strain: DSM20088 for biotransformation under microaerobic condition. The drug concentrations were measured over 6 timepoints collected between 0 and 12 hours of incubation by liquid-chromatography-coupled mass spectrometry (LC–MS); set-up: dose 5 uM, timepoint 0, 1.5, 3, 6, 9, 12 hours; conditions: 5 µM
[23] = The drug is tested on the gut metagenome community of P-04 with ENA study accession number: PRJEB31790 for biotransformation under microaerobic condition. The drug concentrations were measured over 7 timepoints collected between 0 and 12 hours of incubation by liquid-chromatography-coupled mass spectrometry (LC–MS); set-up: dose 5 uM, timepoint 0, 0.75, 1.5, 3, 6, 9, 12 hours; conditions: 5 µM
[24] = The drug is tested on Clostridium bolteae strain: DSM15670 for biotransformation under anaerobic condition. The drug concentrations were measured over 6 timepoints collected between 0 and 12 hours of incubation by liquid-chromatography-coupled mass spectrometry (LC–MS); set-up: dose 5 uM, timepoint 0, 1.5, 3, 6, 9, 12 hours; conditions: enterocloster bolteae, 5 µM
[25] = The drug is tested on Bacteroides stercoris strain: HM 1036 for biotransformation under anaerobic condition. The drug concentrations were measured over 6 timepoints collected between 0 and 12 hours of incubation by liquid-chromatography-coupled mass spectrometry (LC–MS); set-up: dose 5 uM, timepoint 0, 1.5, 3, 6, 9, 12 hours; conditions: 5 µM
[26] = The drug is tested on the gut metagenome community of T-05 with ENA study accession number: PRJEB31790 for biotransformation under anaerobic condition. The drug concentrations were measured over 7 timepoints collected between 0 and 12 hours of incubation by liquid-chromatography-coupled mass spectrometry (LC–MS); set-up: dose 5 uM, timepoint 0, 0.75, 1.5, 3, 6, 9, 12 hours; conditions: 5 µM

Structure (SMILES) | Bacterial Biotransformation [1] | Bacterial Biotransformation [2] | Bacterial Biotransformation [3] | Bacterial Biotransformation [4] | Bacterial Biotransformation [5] | Bacterial Biotransformation [6] | Bacterial Biotransformation [7] | Bacterial Biotransformation [8] | Bacterial Biotransformation [9] | Bacterial Biotransformation [10] | Bacterial Biotransformation [11] | Bacterial Biotransformation [12] | Bacterial Biotransformation [13] | Bacterial Biotransformation [14] | Bacterial Biotransformation [15] | Bacterial Biotransformation [16] | Bacterial Biotransformation [17] | Bacterial Biotransformation [18] | Bacterial Biotransformation [19] | Bacterial Biotransformation [20] | also measured
CCOC(=O)[C@H](CCc1ccccc1)N[C@@H](C)C(=O)N1[C@H](C(=O)O)C[C@@H]2CCC[C@@H]21 | Compound NOT metabolized | Compound NOT metabolized | Compound NOT metabolized | Compound NOT metabolized | Compound NOT metabolized | Compound NOT metabolized | Compound NOT metabolized | Compound NOT metabolized | Compound NOT metabolized | Compound NOT metabolized | Compound NOT metabolized | Compound NOT metabolized | Compound NOT metabolized | Compound NOT metabolized | Compound NOT metabolized | Compound NOT metabolized | Compound NOT metabolized | Compound NOT metabolized | Compound NOT metabolized | Compound NOT metabolized | Bacterial Biotransformation [21]: Compound NOT metabolized; Bacterial Biotransformation [22]: Compound NOT metabolized; Bacterial Biotransformation [23]: Compound NOT metabolized; Bacterial Biotransformation [24]: Compound NOT metabolized; Bacterial Biotransformation [25]: Compound NOT metabolized; Bacterial Biotransformation [26]: Compound NOT metabolized
CC(C)NCC(O)COc1ccc(CC(N)=O)cc1 (stereo not drawn) [ATENOLOL] | Compound NOT metabolized | Compound NOT metabolized | Compound NOT metabolized | Compound NOT metabolized | Compound NOT metabolized | Compound NOT metabolized | Compound NOT metabolized | Compound NOT metabolized | Compound NOT metabolized | Compound NOT metabolized | Compound NOT metabolized | Compound NOT metabolized | Compound NOT metabolized | Compound NOT metabolized | Compound NOT metabolized | Compound NOT metabolized | Compound NOT metabolized | Compound NOT metabolized | Compound NOT metabolized | Compound NOT metabolized | Bacterial Biotransformation [21]: Compound NOT metabolized; Bacterial Biotransformation [22]: Compound NOT metabolized; Bacterial Biotransformation [23]: Compound NOT metabolized; Bacterial Biotransformation [24]: Compound NOT metabolized; Bacterial Biotransformation [25]: Compound NOT metabolized; Bacterial Biotransformation [26]: Compound NOT metabolized
Cn1cnc([N+](=O)[O-])c1Sc1ncnc2nc[nH]c12 [AZATHIOPRINE] | Compound NOT metabolized | Compound metabolized | Compound metabolized | Compound NOT metabolized | Compound metabolized | Compound NOT metabolized | Compound metabolized | Compound metabolized | Compound metabolized | Compound NOT metabolized | Compound NOT metabolized | Compound metabolized | Compound metabolized | Compound NOT metabolized | Compound metabolized | Compound metabolized | Compound metabolized | Compound metabolized | Compound NOT metabolized | Compound metabolized | Bacterial Biotransformation [21]: Compound NOT metabolized; Bacterial Biotransformation [22]: Compound metabolized; Bacterial Biotransformation [23]: Compound NOT metabolized; Bacterial Biotransformation [24]: Compound NOT metabolized; Bacterial Biotransformation [25]: Compound metabolized; Bacterial Biotransformation [26]: Compound metabolized
